How the values were obtained:
Experiment in all cases: Transcription accelerating activity through RARs (PLAP reporter in COS-1 cells)
Assay type in all cases: cell-based
Settings in all cases: relative to ED30 of all-trans retinoic acid = 1, ED30 = concentration giving 30% of activity induced by 1 μM all-trans retinoic acid
RAR-α = target: T1, RAR-α (Homo sapiens, UniProt P10276)
T1 construct: expressed in transfected cells; host or cells: COS-1 (African green monkey kidney cells), transient lipofection
T1 sequence (P10276 1-462): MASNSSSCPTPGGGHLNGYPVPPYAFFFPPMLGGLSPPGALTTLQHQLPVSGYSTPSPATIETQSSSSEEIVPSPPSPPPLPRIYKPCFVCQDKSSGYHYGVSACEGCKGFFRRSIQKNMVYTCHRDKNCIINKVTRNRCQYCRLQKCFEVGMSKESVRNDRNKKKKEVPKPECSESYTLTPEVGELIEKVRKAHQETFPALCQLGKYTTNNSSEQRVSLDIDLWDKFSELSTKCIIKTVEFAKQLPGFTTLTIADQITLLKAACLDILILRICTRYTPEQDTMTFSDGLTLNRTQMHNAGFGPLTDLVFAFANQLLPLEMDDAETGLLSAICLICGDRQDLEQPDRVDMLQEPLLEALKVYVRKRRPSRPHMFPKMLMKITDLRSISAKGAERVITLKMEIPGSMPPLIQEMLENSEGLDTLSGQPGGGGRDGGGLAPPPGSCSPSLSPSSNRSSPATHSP
Source text: (§1) Measurement of the Activities of Accelerating Trans-cription Through RARs
(§2) Human RAR Expression Vectors and secretory alkaline phosphatase (PLAP) gene vectors (PLAP vectors) containing in a state integrated into the upstream a competent sequence whose expression is […] through binding with RAR depending on a ligand were temporarily transferred into COS-1 (African green monkey kidney cells), and the PLAP which had been produced depending on a ligand and secreted into a culture medium was analyzed by the chemiluminescence method to determine the transcription-accelerating activity of each compound. Further, the selectivity of each compound among RARs was determined by comparing the transcription accelerating activities of the compound for the receptors with each other.
(§3) On a 60-mm culture dish were scattered 2.5×10^4 COS-1 cells. Four days after, human RAR α, β and γ expression vectors and PLAP vectors were transferred into the cells each in an amount of 4 μg by the lipofection method. Another day after, the resulting cells were recovered, and put on a 96-well culture plate in an amount of 2×10^4 per unit well. Four hours after, the cells were put on a medium containing charcoal-treated fetal bovine serum, followed by the addition of a dilution of all-trans retinoic acid or a test compound. After the lapse of 36 hours, the supernatant was recovered and the resulting samples were treated at 65° C. for 10 minutes to eliminate the non-specific activity. 15 μl of each sample was mixed with 60 μl of a 28 mM sodium carbonate buffer(pH10), followed by the addition of 75 μl of Smilight (trade name, a product of Sumitomo Metal Industries, Ltd., substrate for chemiluminescence). The resulting mixture was reacted at 37° C. for 30 minutes and the intensity of luminescence was determined. The compounds which will be described below induced the transcription activities of RARs dependently on the concentration.

RAR-γ = target: T2, RAR-γ (Homo sapiens, UniProt P13631)
T2 construct: expressed in transfected cells; host or cells: COS-1 (African green monkey kidney cells), transient lipofection
T2 sequence (P13631 1-454): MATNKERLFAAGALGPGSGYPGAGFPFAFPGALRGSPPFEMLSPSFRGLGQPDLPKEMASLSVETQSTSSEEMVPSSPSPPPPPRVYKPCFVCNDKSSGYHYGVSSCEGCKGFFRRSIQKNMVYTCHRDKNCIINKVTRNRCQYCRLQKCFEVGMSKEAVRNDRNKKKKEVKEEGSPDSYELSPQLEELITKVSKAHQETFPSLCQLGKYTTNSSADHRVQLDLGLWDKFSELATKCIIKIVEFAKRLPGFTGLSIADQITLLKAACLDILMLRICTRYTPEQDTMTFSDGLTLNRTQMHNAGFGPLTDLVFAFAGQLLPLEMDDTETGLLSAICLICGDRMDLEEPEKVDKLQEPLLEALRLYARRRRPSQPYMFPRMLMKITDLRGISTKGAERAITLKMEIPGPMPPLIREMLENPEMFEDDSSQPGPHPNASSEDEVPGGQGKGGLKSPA
Source text: as §1, §2, §3

RAR-β = target: T3, RAR-β (Homo sapiens, UniProt P10826)
T3 construct: expressed in transfected cells; host or cells: COS-1 (African green monkey kidney cells), transient lipofection
T3 sequence (P10826 1-455): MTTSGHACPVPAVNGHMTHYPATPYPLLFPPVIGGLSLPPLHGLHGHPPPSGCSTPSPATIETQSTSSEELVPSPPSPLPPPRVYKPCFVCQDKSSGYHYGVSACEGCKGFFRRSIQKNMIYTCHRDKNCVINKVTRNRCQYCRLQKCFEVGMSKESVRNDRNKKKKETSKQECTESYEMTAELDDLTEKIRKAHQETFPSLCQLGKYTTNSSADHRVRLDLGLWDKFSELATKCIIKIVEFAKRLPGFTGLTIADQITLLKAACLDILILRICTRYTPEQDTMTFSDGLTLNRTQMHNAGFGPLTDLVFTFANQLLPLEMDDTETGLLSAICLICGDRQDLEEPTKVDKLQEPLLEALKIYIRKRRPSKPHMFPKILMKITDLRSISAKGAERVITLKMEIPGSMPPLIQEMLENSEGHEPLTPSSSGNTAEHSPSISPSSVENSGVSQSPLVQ
Source text: as §1, §2, §3

SMILES	Transcription accelerating activity Relative ED30 RAR-α (RAR-α)	Transcription accelerating activity Relative ED30 RAR-γ (RAR-γ)	Transcription accelerating activity Relative ED30 RAR-β (RAR-β)
CC1=CCOc2ccc(-c3ccc(-c4ccc(C(=O)O)cc4)[nH]3)cc21 [Example 133, 4-{2-[5-(4-Methyl-2H-chromen-6-yl)pyrrolyl]}benzoic acid]	3.2	780	250
CCc1cc(F)cc2cc(-c3ccc(-c4ccc(C(=O)O)cc4)[nH]3)oc12 [Example 25, 4-{2-[5-(5-Fluoro-7-ethylbenzofuran-2-yl)pyrrolyl]}benzoic acid]	0.65	63	62
CCCc1cccc2cc(-c3ccc(-c4ccc(C(=O)O)cc4)[nH]3)oc12 [Example 16, 4-{2-[5-(7-n-Propylbenzofuran-2-yl)pyrrolyl]}benzoic acid]	1.0	410	74
O=C(O)c1ccc(-c2ccc(-c3cc4c(F)ccc(F)c4o3)[nH]2)cc1 [Example 27, 4-{2-[5-(4,7-Difluorobenzofuran-2-yl)pyrrolyl]}benzoic acid]	0.63	1000	170
Cc1cccc2c1C=C(c1ccc(-c3ccc(C(=O)O)cc3)[nH]1)CO2 [Example 129, 4-{2-[5-(5-Methyl-2H-chromen-3-yl)pyrrolyl]}benzoic acid]	4.4	2400	1050
CCc1cc(Cl)cc2cc(-c3ccc(-c4ccc(C(=O)O)cc4)[nH]3)oc12 [Example 23, 4-{2-[5-(5-Chloro-7-ethylbenzofuran-2-yl)pyrrolyl]}benzoic acid]	0.40	330	67
Cc1ccc(Cl)c2sc(-c3ccc(-c4ccc(C(=O)O)cc4)[nH]3)cc12 [Example 75, 4-{2-[5-(7-Chloro-4-methylbenzothiophen-2-yl)pyrrolyl]}benzoic acid]	0.80	2000	150
COc1ccc2ccc(-c3ccc(-c4ccc(C(=O)O)cc4)[nH]3)cc2c1C [Example 4, 4-{2-[5-(7-Methoxy-8-methylnaphthalen-2-yl)pyrrolyl]}benzoic acid]	49	— (—; >4000)	— (—; >4000)
Cc1ccc(C)c2sc(-c3ccc(-c4ccc(C(=O)O)cc4)[nH]3)cc12 [Example 77, 4-{2-[5-(4,7-Dimethylbenzothiophen-2-yl)pyrrolyl]}benzoic acid]	0.35	130	65
CCc1cccc2cc(-c3ccc(-c4ccc(C(=O)O)cc4)[nH]3)oc12 [Example 55, 4-{2-[5-(7-Ethylbenzofurn-2-yl)pyrrolyl]}benzoic acid]	0.20	120	31
Cc1ccc(C)c2c(C)c(-c3ccc(-c4ccc(C(=O)O)cc4)[nH]3)oc12 [Example 47, 4-{2-[5-(3,4,7-Trimethylbenzofuran-2-yl)pyrrolyl]}benzoic acid]	0.80	41	2.4
Cc1ccc(F)c2cc(-c3ccc(-c4ccc(C(=O)O)cc4)[nH]3)oc12 [Example 110, 4-{2-[5-(4-Fluoro-7-methylbenzofuran-2-yl)pyrrolyl]}benzoic acid]	0.47	790	210
Cc1ccc(Cl)c2oc(-c3ccc(-c4ccc(C(=O)O)cc4)[nH]3)cc12 [Example 53, 4-{2-[5-(7-Chloro-4-methylbenzofuran-2-yl)pyrrolyl]}benzoic acid]	0.17	430	26
Cc1c(-c2ccc(-c3ccc(C(=O)O)cc3)[nH]2)oc2c(Cl)ccc(Cl)c12 [Example 46, 4-{2-[5-(4,7-Dichloro-3-methylbenzofuran-2-yl)pyrrolyl]}benzoic acid]	0.63	240	14
O=C(O)c1ccc(-c2ccc(-c3cc4cccc(Cl)c4o3)[nH]2)cc1 [Example 15, 4-{2-[5-(7-Chlorobenzofuran-2-yl)pyrrolyl]}benzoic acid]	3.1	2100	940
Cc1cccc2ccc(-c3ccc(-c4ccc(C(=O)O)cc4)[nH]3)cc12 [Example 6, 4-{2-[5-(8-Methylnaphthalen-2-yl)pyrrolyl]}benzoic acid]	0.9	240	110
CCc1cccc2ccc(-c3ccc(-c4ccc(C(=O)O)cc4)[nH]3)cc12 [Example 7, 4-{2-[5-(8-Ethylnaphthalen-2-yl)pyrrolyl]}benzoic acid]	0.9	190	36
CCc1ccc(C)c2cc(-c3ccc(-c4ccc(C(=O)O)cc4)[nH]3)oc12 [Example 17, 4-{2-[5-(4-Methyl-7-ethylbenzofuran-2-yl)pyrrolyl]}benzoic acid]	0.26	120	24

Reference: patent publication US6358995B1, “Carboxylic acid derivatives having fused rings” (Eisai Co., Ltd., priority 1996, dated 2002)
